How the values were obtained:
Type in all cases: cell-based
mTORC = assay: Phosphorylation of mTORC substrates in PANC1 cells (Western blot); conditions: overnight incubation, FIG. 19
Method: Immunoblotting: Western blots were performed as described previously. Briefly, protein lysates (30 μg) were subjected to SDS-PAGE and transferred to nitrocellulose membranes. After blocking with 5% milk in TBST buffer for 30 min at room temperature, the membranes were incubated overnight at 4° C. with the Indicated primary antibody in 3% BSA in TBST. Specific proteins were detected with the corresponding HRP conjugated secondary antibody using enhanced chemiluminescence (GE Lifesciences, Piscataway, NJ).
(§1) Because of ease of growth, PANC1 pancreatic cancer cells were used to test the activity of derivatives of VBT-5445 (FIG. 14). […] Using a doxycycline inducible Pim kinase vector in these tumor cells, this inhibition of phosphorylation was proportional to the level of Pim in these cells (FIG. 9). […] Inhibition of mTORC1 is known to stimulate the feedback activation of mTORC2 leading to AKT phosphorylation. […] The effect of these compounds on mTORC1 and 2 was still evident in PC3-LN4 cells that contained a knockout (KO) using CRISPR/CAS9 of either TSC2 or DEPDC5 (FIG. 12, lanes 4-9). TSC2 KO activated the Rheb GTPase while DEPDC5 KO activated the RAG GTPase both of which stimulate mTORC1 activity. Thus, GRG compounds were capable of inhibiting mTORC1 activity even when this kinase was highly activated.

[1] = tested on: PANC1 pancreatic cancer cells; assay: Growth inhibition of PANC1 pancreatic cancer cells
Method: Cell growth assay: Tumor cells were seeded into 48 well plates (1000 cells/well) and treated with varied agents. The Incucyte real-time imaging system (Incucyte) was used to measure cell proliferation using a non-label cell monolayer confluence approach. The images were captured every 12 h. Graphs were generated using an integrated confluence metric as an alternative for cell numbers. At the end of the study cell growth was visualized by crystal violet staining.
as §1

Prostate Cancer Growth = assay: SAR studies using inhibition of prostate cancer growth as a readout; conditions: SAR by substituent position
PANC1 cells = assay: Reverse-phase protein array (RPPA) of PANC1 cells, Table 3; conditions: 6 h treatment, divided by zero-time value, average of triplicate
Method: To further examine how these compounds function to inhibit tumor growth, changes in both a wide variety of phosphoprotein and protein levels using reverse-phase protein arrays (RPPA) were evaluated. […] The values in the RPPA obtained at these two time points were divided by the value at time zero to allow an evaluation of the changes caused by each drug treatment.

With O=c1c(CNCc2ccccn2)cc2ccc(Cl)cc2n1CCSc1ccccc1 [GRG-1-104, 7-chloro-1-(2-(phenylthio)ethyl)-3-(((pyridin-2-ylmethyl)amino)methyl)quinolin-2 (1H)-one] the “block of phosphorylation of mTORC substrates (AKT, 4E-BP1, S6)” value (“block” below) (mTORC) was “block the phosphorylation of mTORC substrates”, the “growth inhibitory activity against PANC1 pancreatic cancer cells” value (“growth inhibitory activity” for short) [1] was “most active” and the “Activity (inhibition of prostate cancer growth)” value (Prostate Cancer Growth) was “Active”.
In the case of Cc1cccc(CNCc2cc3ccc(Cl)cc3n(CCOc3ccccc3)c2=O)n1 [GRG-1-31], the “block” value (mTORC) is reported as “block the phosphorylation of mTORC substrates” and the “growth inhibitory activity” value [1] is reported as “most active”.
O=c1c(CNCc2ncccc2F)cc2ccc(Cl)cc2n1CCOc1ccccc1 [ZH-2-50] was tested, and the “Activity (inhibition of prostate cancer growth)” value (Prostate Cancer Growth) was “Less active”.
COc1ccc(CNCc2cc3ccc(Cl)cc3n(CCOc3ccccc3)c2=O)nc1 [GRG-1-27] was tested, and the “Activity (inhibition of prostate cancer growth)” value (Prostate Cancer Growth) was 2 active compounds.
COc1ccnc(CNCc2cc3ccc(Cl)cc3n(CCOc3ccccc3)c2=O)c1 [GRG-1-95] was tested, and the “Activity (inhibition of prostate cancer growth)” value (Prostate Cancer Growth) was 6 active compounds.
O=c1c(CNCc2ccc(C(F)(F)F)cn2)cc2ccc(Cl)cc2n1CCOc1ccccc1 [GRG-1-28] was tested, and the “Activity (inhibition of prostate cancer growth)” value (Prostate Cancer Growth) was 2 active compounds.
For CN(Cc1ccccn1)Cc1cc2ccc(Cl)cc2n(CCOc2ccccc2)c1=O [GRG-1-61], the “Activity (inhibition of prostate cancer growth)” value (Prostate Cancer Growth) was “Reduces activity to some extent”.
For COc1ccc(OCCn2c(=O)c(CNCc3cc(Cl)ccn3)cc3ccc(Cl)cc32)cc1 [GRG-1-167], the “Activity (inhibition of prostate cancer growth)” value (Prostate Cancer Growth) was “substitution decreases activity”.
In the case of O=c1c(CNCc2cccc(Br)n2)cc2ccc(Cl)cc2n1CCOc1ccccc1 [ZH-2-44], the “Activity (inhibition of prostate cancer growth)” value (Prostate Cancer Growth) is reported as 1 active compound (methoxy).
In the case of COc1ccc(OCCn2c(=O)c(CNCc3cc(Br)ccn3)cc3ccc(Cl)cc32)cc1 [GRG-1-166], the “Activity (inhibition of prostate cancer growth)” value (Prostate Cancer Growth) is reported as “Brings activity, though 4-chloro”.
With COc1ccc(OCCn2c(=O)c(CNCc3cc(C(F)(F)F)ccn3)cc3ccc(Cl)cc32)cc1 [GRG-1-127] the “Activity (inhibition of prostate cancer growth)” value (Prostate Cancer Growth) was “Brings activity, though 4-chloro”.
O=c1c(COCc2ccccn2)cc2ccc(Cl)cc2n1CCOc1ccccc1 [GRG-1-63] was tested, and the “Activity (inhibition of prostate cancer growth)” value (Prostate Cancer Growth) was “Contributes to loss of activity”.
For CC(C)n1nc(-c2cc3cc(O)ccc3[nH]2)c2c(N)ncnc21 [pp242, reference compound], the “4EBP1S65, RPPA value after treatment / zero-time value” (PANC1 cells) was 0.22, the “4EBP1T70, RPPA value after treatment / zero-time value” (PANC1 cells) was 0.32 and the “ATMS1981, RPPA value after treatment / zero-time value” (PANC1 cells) was 0.46. The “CICaspase3D175, RPPA value after treatment / zero-time value” (PANC1 cells) was 0.7, the “CofilinS3, RPPA value after treatment / zero-time value” (PANC1 cells) was 0.6 and the “CrkIIY221, RPPA value after treatment / zero-time value” (PANC1 cells) was 1.57. The “ERKT202_Y204, RPPA value after treatment / zero-time value” (PANC1 cells) was 2.04, the “FAKY576_577, RPPA value after treatment / zero-time value” (PANC1 cells) was 0.81 and the “FKHR-FOX01S256, RPPA value after treatment / zero-time value” (PANC1 cells) was 1.03. The “GSK3a_bS21_9, RPPA value after treatment / zero-time value” (PANC1 cells) was 1.09, the “HistoneH2AXS139, RPPA value after treatment / zero-time value” (PANC1 cells) was 1.19 and the “HistoneH3S10, RPPA value after treatment / zero-time value” (PANC1 cells) was 0.64. The “IL-1bcleavedD116, RPPA value after treatment / zero-time value” (PANC1 cells) was 0.46, the “Jak1Y1022_1023, RPPA value after treatment / zero-time value” (PANC1 cells) was 0.71 and the “MAPKpTEpY, RPPA value after treatment / zero-time value” (PANC1 cells) was 0.64. For the same molecule, the “PDGFRbY751, RPPA value after treatment / zero-time value” (PANC1 cells) was 0.67, the “PP1aT320, RPPA value after treatment / zero-time value” (PANC1 cells) was 0.61 and the “PaxillinY118, RPPA value after treatment / zero-time value” (PANC1 cells) was 0.9. The “RetY905, RPPA value after treatment / zero-time value” (PANC1 cells) was 0.25, the “S6RibosomalPS235_236, RPPA value after treatment / zero-time value” (PANC1 cells) was 0.34 and the “S6RibosomalProtein S240_244, RPPA value after treatment / zero-time value” (PANC1 cells) was 0.66. For the same molecule, the “SAPK_JNKT183_Y185, RPPA value after treatment / zero-time value” (PANC1 cells) was 1.07, the “Stat2Y690, RPPA value after treatment / zero-time value” (PANC1 cells) was 0.76 and the “Stat3Y705, RPPA value after treatment / zero-time value” (PANC1 cells) was 0.51. For the same molecule, the “Tyk2Y1054_1055, RPPA value after treatment / zero-time value” (PANC1 cells) was 0.51, the “VEGFR2Y1175, RPPA value after treatment / zero-time value” (PANC1 cells) was 0.34 and the “YAPS127, RPPA value after treatment / zero-time value” (PANC1 cells) was 0.76. The “cAbIY245, RPPA value after treatment / zero-time value” (PANC1 cells) was 1.54, the “cKitY703, RPPA value after treatment / zero-time value” (PANC1 cells) was 1.09 and the “p38MAPKT180_Y182, RPPA value after treatment / zero-time value” (PANC1 cells) was 0.59. For the same molecule, the “p70S6KS371, RPPA value after treatment / zero-time value” (PANC1 cells) was 0.39, the “p70S6KT389, RPPA value after treatment / zero-time value” (PANC1 cells) was 0.29 and the “p90RSKS380, RPPA value after treatment / zero-time value” (PANC1 cells) was 0.91.
O=c1c(CNCc2cc(Br)ccn2)cc2ccc(N3CCOCC3)cc2n1CCOc1ccccc1 [GRG-02-24] was tested, and the “Activity (inhibition of prostate cancer growth)” value (Prostate Cancer Growth) was “Contributes to loss of activity”.
O=C(NCc1cc2ccc(Cl)cc2n(CCOc2ccccc2)c1=O)c1ccccn1 [GRG-1-94, N-((7-chloro-2-oxo-1-(2-phenoxyethyl)-1,2-dihydroquinolin-3-yl)methyl) picolinamide] was tested, and the “block” value (mTORC) was “not” and the “growth inhibitory activity” value [1] was “inactive”.
With Cc1ccnc(CNCc2cc3ccc(Cl)cc3n(CCOc3ccccc3)c2=O)c1 [GRG-1-96] the “Activity (inhibition of prostate cancer growth)” value (Prostate Cancer Growth) was 6 active compounds.
COc1ccc(OCCn2c(=O)c(CNCc3ccccn3)cc3ccc(Cl)cc32)cc1 [GRG-1-70] was tested, and the “Activity (inhibition of prostate cancer growth)” value (Prostate Cancer Growth) was “Brings activity, though 4-chloro”.
For O=c1c(COCc2ccccc2)cc2ccc(Cl)cc2n1CCOc1ccccc1 [GRG-1-60], the “block” value (mTORC) was “not”, the “growth inhibitory activity” value [1] was “inactive” and the “Activity (inhibition of prostate cancer growth)” value (Prostate Cancer Growth) was “Contributes to loss of activity”.

From patent US20250129045A1, “SMALL MOLECULE PIM AND MTOR KINASE INHIBITOR AND METHODS OF USE THEREOF” (Arizona Board of Regents on Behalf of the University of …, priority 2022, published 2025)
